Test results: patent publication US5707989A, “Pyrimido[5,4-D]pyrimidines, medicaments comprising these compounds, their use and processes for their preparation” (Dr. Karl Thomae GmbH, priority 1994, dated 1998)

Legend:
Assay type in all cases: cell-based
human EGF-R = biological target: T1, human EGF-R (Homo sapiens, UniProt P00533); experiment: Inhibition of EGF-dependent proliferation of F/L-HERc cells; settings: human EGF 20 ng/ml, 48 hours
T1 construct: expressed in transfected cells; host or cells: F/L-HERc cells: murine IL-3-dependent line FDC-P1 infected with recombinant retrovirus (LXSN vector, GP+E86 packaging line) carrying human EGF-R cDNA
Excerpt: (§1) The inhibition of EGF-R-mediated signal transmission can be detected, for example, with cells which express human EGF-R, the survival and proliferation of which depend on stimulation by EGF or TGF-alpha. An interleukin-3 (IL-3)-dependent cell line of murine origin which was changed genetically such that it expresses functional human EGF-R was used here. The proliferation of these cells, called F/L-HERc, can therefore be stimulated either by murine IL-3 or by EGF (see von Ruden, T. et al. in EMBO J. 7, 2749-2756 (1988) and Pierce, J. H. et al. in Science 239, 628-631 (1988)).
(§2) The starting material used for the F/L-HERc cells was the cell line FDC-P1, the preparation of which has been described by Dexter, T. M. et al. in J. Exp. Med. 152, 1036-1047 (1980). Alternatively, however, other growth factor-dependent cells can also be used (see, for example, Pierce, J. H. et al. in Science 239, 628-631 (1988), Shibuya, H. et al. in Cell 70, 57-67 (1992) and Alexander, W. S. et al. in EMBO J. 10, 3683-3691 (1991)). Recombinant retroviruses were used for expression of the human EGF-R cDNA (see Ullrich, A. et al. in Nature 309, 418-425 (1984)), as described in yon Ruden, T. et al., EMBO J. 7, 2749-2756 (1988), with the difference that the retroviral vector LXSN (see Miller, A. D. et al. in BioTechniques 7, 980-990 (1989)) was used for expression of the EGF-R cDNA and the line GP+E86 (see Markowitz, D. et al. in J. Virol. 62, 1120-1124 (1988)) was used as the packing cell.
(§3) The test was carried out as follows:
(§4) F/L HERc cells were cultured at 37° C. and 5% CO2 in RPMI/1640 medium (BioWhittaker), supplemented with 10% foetal bovine serum (FCS, Boehringer Mannheim), 2 mM glutamine (BioWhittaker), standard antibiotics and 20 ng/ml of human EGF (Promega). For investigation of the inhibitory activity of the compounds according to the invention, 1.5×10^4 cells per well were cultured in triplicate in 96-well plates in the above medium (200 μl), proliferation of the cells being stimulated with either EGF (20 ng/ml) or murine IL-3. Culture stocks of the cell line X63/0 mIL-3 were used as the source for IL-3 (see Karasuyama, H. et al. in Eur. J. Immunol. 18, 97-104 (1988)). The compounds according to the invention were dissolved in 100% dimethyl sulphoxide (DMSO) and added to the cultures in various dilutions, the maximum DMSO concentration being 1%. The cultures were incubated at 37° C. for 48 hours.
(§5) To determine the inhibitory activity of the compounds according to the invention, the relative cell count was measured in OD units with Cell Titer 96™ Aqueous Non-Radioactive Cell Proliferation Assay (Promega). The relative cell count was calculated in per cent of the control (F/LHERc cells without inhibitor) and the active compound concentration which inhibits the proliferation of the cells to 50% (IC50) was deduced.

F/L-HERc cells = experiment: Inhibition of IL-3-dependent proliferation of F/L-HERc cells; settings: Mus musculus, murine IL-3, 48 hours
Excerpt: as §1, §2, §3, §4, §5

[1] = tested on: human tumour cell line KB; experiment: EGF/TGF-alpha-stimulated proliferation (thymidine incorporation) of KB cells; settings: TGF-alpha 10 ng/ml or EGF 20 ng/ml, 60 hours, then [3H]-thymidine 16-18 hours, read-out: IC50 for inhibition of the EGF/TGF-alpha-stimulated KB cell proliferation
Description: KB cells (obtained from ATCC) were passaged in DMEM (BioWhittaker) in the presence of 10% FCS (Boehringer Mannheim), 50 μM beta-mercaptoethanol and standard antibiotics. As an indicator of EGF/TGF-alpha-stimulated cell proliferation, the EGF-inducedDNA synthesis was determined by measurement of the incorporation of radioactively labelled thymidine. For this, the celels were washed twice and 1500 cells per well were plated out in a 96-well plate in 200 μl IMDM (BioWhittaker) without serum in the presence of 50 μM beta-mercaptoethanol, standard antibiotics, TGF-alpha [10 ng/ml] or EGF [20 ng/ml] and various concentrations of the substances according to the invention (triplicates, maximum DMSO concentration 1%, see proliferation test with F/L-HERc cells). After 60 hours, [^3 H]-thymidine (0.1 μCi in 10 μl) was added for about 16-18 hours. Subsequent measurement of the thymidine incorporation gave IC50 values of 0.1-1 μM for inhibition of the EGF/TGF-alpha-stimulated KB cell proliferation for compounds 2, 6, 17, 18, 19, 72, 83, 93, 95, 96 and 104 of Example 1.

T1 sequence (P00533 25-1210): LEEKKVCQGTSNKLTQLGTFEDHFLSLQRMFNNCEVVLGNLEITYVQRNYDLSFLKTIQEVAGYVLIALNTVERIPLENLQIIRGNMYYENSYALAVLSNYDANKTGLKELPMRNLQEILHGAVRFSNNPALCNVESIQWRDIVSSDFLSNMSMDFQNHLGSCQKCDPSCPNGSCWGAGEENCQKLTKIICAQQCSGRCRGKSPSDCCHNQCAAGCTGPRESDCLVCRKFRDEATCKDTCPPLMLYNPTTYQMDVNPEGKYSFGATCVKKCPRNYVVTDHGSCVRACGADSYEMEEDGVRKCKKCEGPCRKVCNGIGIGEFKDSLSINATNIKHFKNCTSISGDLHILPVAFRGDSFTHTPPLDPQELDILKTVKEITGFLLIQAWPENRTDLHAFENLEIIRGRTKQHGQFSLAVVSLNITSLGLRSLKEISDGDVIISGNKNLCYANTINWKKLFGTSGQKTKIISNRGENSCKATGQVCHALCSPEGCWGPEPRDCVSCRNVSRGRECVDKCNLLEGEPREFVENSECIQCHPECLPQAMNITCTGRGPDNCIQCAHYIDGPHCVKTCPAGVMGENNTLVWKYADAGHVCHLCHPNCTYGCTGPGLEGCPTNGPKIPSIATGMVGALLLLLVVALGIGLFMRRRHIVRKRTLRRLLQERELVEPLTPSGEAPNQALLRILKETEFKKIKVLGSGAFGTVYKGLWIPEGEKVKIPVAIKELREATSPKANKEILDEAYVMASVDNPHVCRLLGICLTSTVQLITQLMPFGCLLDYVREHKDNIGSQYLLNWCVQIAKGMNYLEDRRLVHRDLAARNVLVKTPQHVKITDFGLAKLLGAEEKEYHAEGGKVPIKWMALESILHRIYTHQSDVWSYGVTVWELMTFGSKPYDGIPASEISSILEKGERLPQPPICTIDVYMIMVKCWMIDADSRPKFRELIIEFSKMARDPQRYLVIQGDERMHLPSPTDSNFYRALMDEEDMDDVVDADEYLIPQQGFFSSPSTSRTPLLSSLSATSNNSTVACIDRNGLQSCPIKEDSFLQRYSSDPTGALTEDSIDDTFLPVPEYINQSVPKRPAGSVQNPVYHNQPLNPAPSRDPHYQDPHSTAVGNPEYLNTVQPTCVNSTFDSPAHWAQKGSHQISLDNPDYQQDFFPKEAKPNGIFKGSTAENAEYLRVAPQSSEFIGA

| Compound | IC50 (human EGF-R) [nM] | IC50 (F/L-HERc cells) [nM] | IC50 [1] [nM] |
| --- | --- | --- | --- |
| Cc1cccc(Nc2ncnc3cnc(N4CCN(c5ccccc5)CC4)nc23)c1 [1(3), 4-[(3-Methylphenyl)amino]-6-(1-phenyl-4-piperazinyl)-pyrimido[5,4-d]pyrimidine] | 2500 | > 10000 | – |
| COc1ncc2ncnc(Nc3cccc(C)c3)c2n1 [1(5), 4-[(3-Methylphenyl)amino]-6-methoxy-pyrimido[5,4-d]pyrimidine] | 1000 | > 10000 | – |
| CCN(CC)c1ncc2ncnc(Nc3cccc(C)c3)c2n1 [1(10), 4-[(3-Methylphenyl)amino]-6-(diethylamino)-pyrimido[5,4-d]pyrimidine] | 500 | > 10000 | – |
| Cc1cccc(Nc2ncnc3cnc(N)nc23)c1 [1(13), 4-[(3-Methylphenyl)amino]-6-amino-pyrimido[5,4-d]pyrimidine] | 300 | > 10000 | – |
| C#CCNc1ncc2ncnc(Nc3cccc(C)c3)c2n1 [1(23), 4-[(3-Methylphenyl)amino]-6-(propargylamino)-pyrimido[5,4-d]pyrimidine] | 25 | > 3000 | – |
| Cc1cccc(Nc2ncnc3cnc(NC(C)CO)nc23)c1 (stereo not drawn) [1(58), 4-[(3-Methylphenyl)amino]-6-(1-hydroxy-2-propylamino)pyrimido[5,4-d]pyrimidine] | 20 | > 3000 | – |
| Cc1cccc(Nc2ncnc3cnc(N4CCC(N)CC4)nc23)c1 [1(61), 4-[(3-Methylphenyl)amino]-6-(4-amino-1-piperidinyl)-pyrimido[5,4-d]pyrimidine] | 32 | 9000 | – |
| Cc1cccc(Nc2ncnc3cnc(NC4CCN(C)CC4)nc23)c1 [1(62), 4-[(3-Methylphenyl)amino]-6-[(1-methyl-4-piperidinyl)amino]-pyrimido[5,4-d]pyrimidine] | 40 | > 1000 | – |
| Cc1cccc(Nc2ncnc3cnc(N[C@H]4CC[C@H](NC(=O)OC(C)(C)C)CC4)nc23)c1 [1(108), 4-[(3-Methylphenyl)amino]-6-[(trans-4-tert-butyloxycarbonylamino-cyclohexyl)amino]pyrimido[5,4-d]pyrimidine] | 50 | > 10000 | – |
| Cc1cccc(Nc2ncnc3cnc(NC4CCC(=O)CC4)nc23)c1 [1(109), 4-[(3-Methylphenyl)amino]-6-[(4-oxo-cyclohexyl)amino]pyrimido[5,4-d]pyrimidine] | 15 | 10000 | – |
| O[C@H]1CC[C@H](Nc2ncc3ncnc(Nc4cccc(Cl)c4)c3n2)CC1 [1(110), 4-[(3-Chlorophenyl)amino]-6-[(trans-4-hydroxycyclohexyl)amino]pyrimido[5,4-d]pyrimidine] | 2 | > 10000 | – |
| Fc1ccc(Nc2ncnc3cnc(NCCN4CCOCC4)nc23)cc1Cl [1(129), 4-[(3-Chloro-4-fluoro-phenyl)amino]-6-[2-(morpholino)-ethylamino]-pyrimido[5,4-d]pyrimidine] | 8 | > 20000 | – |
| Cc1cccc(Nc2ncnc3cnc(N[C@H]4CC[C@H](C(=O)O)CC4)nc23)c1 [1(134), 4-[(3-Methylphenyl)amino]-6-[trans-4-carboxy-cyclohexylamino]-pyrimido[5,4-d]pyrimidine] | 13 | > 10000 | – |
| Cc1cccc(Nc2ncnc3cnc(N[C@H]4CC[C@H](C(=O)N5CCOCC5)CC4)nc23)c1 [1(140), 4-[(3-Methylphenyl)amino]-6-[trans-4-(morpholinocarbonyl)cyclohexylamino]-pyrimido[5,4-d]pyrimidine] | 5 | > 10000 | – |
| Cc1cccc(Nc2ncnc3cnc(NC4CCOCC4)nc23)c1 [1(170), 4-[(3-Methylphenyl)amino]-6-(4-tetrahydropyranylamino)-pyrimido[5,4-d]pyrimidine] | 15 | > 10000 | – |
| CC(CO)(CO)Nc1ncc2ncnc(Nc3ccc(Cl)c(F)c3)c2n1 [1(183), 4-[(4-Chloro-3-fluoro-phenyl)amino]-6-(1,3-dihydroxy-2-methyl-2-propylamino)-pyrimido[5,4-d]pyrimidine] | 5 | > 20000 | – |
| Cc1cccc(Nc2ncnc3cnc(Nc4ccc(N5CCCC5CO)cc4)nc23)c1 (stereo not drawn) [1(193), 4-[(3-Methylphenyl)amino]-6-[4-(2-hydroxymethyl-1-pyrrolidinyl)phenylamino]-pyrimido[5,4-d]pyrimidine] | 4 | 10000 | – |
| Cc1cccc(Nc2ncnc3cnc(NCC4COCCOCCOCCOCCO4)nc23)c1 (stereo not drawn) [1(197)] | 900 | 10000 | – |
| N#Cc1cc(Nc2ncnc3cnc(N[C@H]4CC[C@H](O)CC4)nc23)ccc1N [1(201), 4-[(4-Amino-3-cyano-phenyl)amino]-6-[(trans-4-hydroxycyclohexyl)-amino]-pyrimido[5,4-d]pyrimidine] | 32 | > 10000 | – |
| O[C@H]1CC[C@H](Nc2ncc3ncnc(Nc4ccc(F)c(Cl)c4)c3n2)CC1 [1(204), 4-[(3-Chloro-4-fluoro-phenyl)amino]-6-[(trans-4-hydroxycyclohexyl)-amino]-pyrimido[5,4-d]pyrimidine] | 0.8 | > 10000 | – |
| Nc1c(Cl)cc(Nc2ncnc3cnc(N[C@H]4CC[C@H](O)CC4)nc23)cc1Cl [1(207), 4-[(4-Amino-3,5-dichloro-phenyl)amino]-6-[(trans-4-hydroxycyclohexyl)-amino]-pyrimido[5,4-d]pyrimidine] | 2 | > 10000 | – |
| Fc1cc(F)cc(Nc2ncnc3cnc(NC4CC4)nc23)c1 [3(5), 4-[(3,5-Difluorophenyl)amino]-6-(cyclopropylamino)-pyrimido[5,4-d]pyrimidine] | 50 | > 3000 | – |
| FC(F)(F)Oc1cccc(Nc2ncnc3cnc(NC4CC4)nc23)c1 [3(18), 4-[(3-Trifluoromethoxyphenyl)amino]-6-(cyclopropylamino)-pyrimido[5,4-d]pyrimidine] | 50 | > 3000 | – |
| N#Cc1cccc(Nc2ncnc3cnc(NC4CC4)nc23)c1 [3(19), 4-[(3-Cyanophenyl)amino]-6-(cyclopropylamino)-pyrimido[5,4-d]pyrimidine] | 15 | > 3000 | – |
| O=[N+]([O-])c1cccc(Nc2ncnc3cnc(NC4CC4)nc23)c1 [3(45), 4-[(3-Nitrophenyl)amino]-6-(cyclopropylamino)-pyrimido[5,4-d]pyrimidine] | 20 | > 1000 | – |
| Brc1cccc(Nc2ncnc3cncnc23)c1 [4(1), 4-[(3-Bromophenyl)amino]-pyrimido[5,4-d]pyrimidine] | 2000 | > 10000 | – |
| Cc1cccc(Nc2ncnc3cnc(NC(C)C)nc23)c1 [Example 1(2), 4-[(3-Methylphenyl)amino]-6-(isopropylamino)-pyrimido[5,4-d]pyrimidine] | – | – | 100 to 1000 |
| Cc1cccc(Nc2ncnc3cnc(N4CCCC4)nc23)c1 [Example 1(18), 4-[(3-Methylphenyl)amino]-6-(1-pyrrolidinyl)-pyrimido[5,4-d]pyrimidine] | – | – | 100 to 1000 |
